We go through 30 compounds from US8664379B2, “Fused heterocyclic compounds as ion channel modulators” (Gilead Sciences, Inc., priority 2008, dated 2014).

Chain of wild-type human cardiac sodium channel, hNav1.5 (late sodium current) (Q14524 whole entry): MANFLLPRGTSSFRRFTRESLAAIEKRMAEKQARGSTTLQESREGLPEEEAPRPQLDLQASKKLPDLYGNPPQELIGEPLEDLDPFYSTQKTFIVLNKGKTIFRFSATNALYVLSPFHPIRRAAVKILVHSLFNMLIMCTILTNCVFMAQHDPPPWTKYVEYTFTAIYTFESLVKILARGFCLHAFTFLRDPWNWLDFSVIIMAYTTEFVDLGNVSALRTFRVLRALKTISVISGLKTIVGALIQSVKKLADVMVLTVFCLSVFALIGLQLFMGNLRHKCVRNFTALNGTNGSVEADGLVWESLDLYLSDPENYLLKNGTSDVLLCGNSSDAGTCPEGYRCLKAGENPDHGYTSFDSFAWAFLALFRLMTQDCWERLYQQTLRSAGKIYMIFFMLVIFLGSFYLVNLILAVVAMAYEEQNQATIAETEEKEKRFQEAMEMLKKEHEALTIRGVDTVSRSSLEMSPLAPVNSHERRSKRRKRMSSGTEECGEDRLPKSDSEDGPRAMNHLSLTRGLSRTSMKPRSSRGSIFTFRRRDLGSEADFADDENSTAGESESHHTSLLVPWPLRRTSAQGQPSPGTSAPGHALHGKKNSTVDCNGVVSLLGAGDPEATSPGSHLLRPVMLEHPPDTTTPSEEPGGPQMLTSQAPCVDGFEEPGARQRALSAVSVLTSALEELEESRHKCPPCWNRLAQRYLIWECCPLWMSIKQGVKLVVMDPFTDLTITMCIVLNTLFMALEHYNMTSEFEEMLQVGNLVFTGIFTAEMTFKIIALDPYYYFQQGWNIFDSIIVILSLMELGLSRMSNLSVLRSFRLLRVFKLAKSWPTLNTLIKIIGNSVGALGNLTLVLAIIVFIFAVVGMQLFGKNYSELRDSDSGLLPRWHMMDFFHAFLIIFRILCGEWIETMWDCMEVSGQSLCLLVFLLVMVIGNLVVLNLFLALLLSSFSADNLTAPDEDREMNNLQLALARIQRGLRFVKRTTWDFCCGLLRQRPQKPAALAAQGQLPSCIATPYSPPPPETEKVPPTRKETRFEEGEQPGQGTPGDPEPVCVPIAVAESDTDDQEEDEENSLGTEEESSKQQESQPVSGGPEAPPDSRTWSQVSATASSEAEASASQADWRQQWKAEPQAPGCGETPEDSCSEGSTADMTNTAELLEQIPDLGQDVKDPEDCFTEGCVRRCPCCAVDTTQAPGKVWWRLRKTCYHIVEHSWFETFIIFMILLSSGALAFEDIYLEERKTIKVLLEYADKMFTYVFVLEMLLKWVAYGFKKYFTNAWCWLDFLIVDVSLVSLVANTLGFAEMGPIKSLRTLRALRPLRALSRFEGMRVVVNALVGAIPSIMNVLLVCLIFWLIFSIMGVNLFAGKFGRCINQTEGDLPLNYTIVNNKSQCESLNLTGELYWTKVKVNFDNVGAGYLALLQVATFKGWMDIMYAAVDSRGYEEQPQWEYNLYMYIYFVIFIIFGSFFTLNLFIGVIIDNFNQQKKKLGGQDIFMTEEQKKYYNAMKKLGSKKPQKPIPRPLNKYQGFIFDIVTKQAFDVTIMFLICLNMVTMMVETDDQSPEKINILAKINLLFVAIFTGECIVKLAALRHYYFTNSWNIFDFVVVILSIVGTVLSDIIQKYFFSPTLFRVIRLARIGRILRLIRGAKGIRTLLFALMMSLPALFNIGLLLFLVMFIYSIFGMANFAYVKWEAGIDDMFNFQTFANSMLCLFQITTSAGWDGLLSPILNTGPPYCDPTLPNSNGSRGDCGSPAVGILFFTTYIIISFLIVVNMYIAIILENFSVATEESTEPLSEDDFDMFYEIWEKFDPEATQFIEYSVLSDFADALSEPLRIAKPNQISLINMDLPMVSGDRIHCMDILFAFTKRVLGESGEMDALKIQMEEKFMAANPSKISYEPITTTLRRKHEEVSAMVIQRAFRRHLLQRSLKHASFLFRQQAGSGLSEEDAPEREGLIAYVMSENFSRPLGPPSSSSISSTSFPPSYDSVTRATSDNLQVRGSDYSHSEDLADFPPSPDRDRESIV

One test addresses wild-type human cardiac sodium channel, hNav1.5 (late sodium current) (Homo sapiens, UniProt Q14524). The test is described as follows: Late INa screening assay (PatchXpress whole cell patch clamp). It counts as cell-based. The conditions noted are these: 1 μM test compound; HEK293 cells expressing hNav1.5; late INa generated with 10 μM Tefluthrin (some experiments 50 nM ATX II). The protocol: The late sodium current (Late INa) and peak sodium current (Peak INa) assays were performed on an automated electrophysiology platform, PatchXpress 7000A (MDS Analytical Technologies, Sunnyvale, Calif.), which uses the whole cell patch clamp technique to measure currents through the cell membrane of up to 16 cells at a time. The assay used an HEK293 (human embryonic kidney) cell line heterologously expressing the wild-type human cardiac sodium channel, hNav1.5, purchased from Millipore (Billerica, Mass.). No beta subunits were coexpressed with the Na channel alpha subunit. Cells were maintained with standard tissue culture procedures and stable channel expression was maintained with 400 μg/ml Geneticin in the culture medium. Cells isolated for use on PatchXpress were incubated for 5 minutes in Versene 1× and then for 2 minutes in 0.0125% Trypsin-EDTA (both at 37° C.) to ensure that 80-90% of the cells are single and not part of a cell cluster. Experiments were carried out at 24-27° C.
For both the Late INa and Peak INa assays, series resistance compensation was set to 50% and whole-cell compensation was performed automatically. Currents were low-pass filtered at 10 kHz and digitized at 31.25 kHz. Currents through open sodium channels were automatically recorded and stored in the DataXpress2 database (MDS Analytical Technologies, Sunnyvale, Calif.). Analysis was performed using DataXpress2 analysis software and data are compiled in Excel.
Compound stocks were routinely made in glass vials to 10 mM in dimethyl sulfoxide (DMSO). In some cases, when compounds were not soluble in DMSO, they were made in 100% ethanol. Stocks were sonicated as necessary. The extracellular solution for screening Late INa was composed of: 140 mM NaCl, 4 mM KCl, 1.8 mM CaCl2, 0.75 mM MgCl2, and 5 mM HEPES with pH adjusted to 7.4 using NaOH. The extracellular solution for screening Peak INa was composed of: 20 mM NaCl, 120 mM N-methyl-D glucamine, 4 mM KCl, 1.8 mM CaCl2, 0.75 mM MgCl2, and 5 mM HEPES with pH adjusted to 7.4 using HCl. The intracellular solution used to perfuse the inside of the cells for both the Late INa and Peak INa assays contains: 120 mM CsF, 20 mM CsCl, 5 mM EGTA, 5 mM HEPES and pH adjusted to 7.4 with CsOH. Compounds were diluted in extracellular solution to 10 μM in glass vials and then transferred to glass well plates before robotic addition to the cells. The 0Na extracellular solution used at the end of each experiment for the Late INa and Peak INa assays to measure baseline current contained: 140 mM N-methyl-D-glucamine; 4 mM KCl; 1.8 mM CaCl2; 0.75 mM MgCl2; 5 mM HEPES and pH was adjusted to 7.4 with HCl.
For the Late INa assay, sodium channels were activated every 10 seconds (0.1 Hz) by depolarizing the cell membrane to −20 mV for 250 milliseconds (ms) from a holding potential of −120 mV. In response to a −20 mV voltage step, typical Nav1.5 sodium currents activated rapidly to a peak negative current and then inactivated nearly completely within 3-4 ms.
All compounds were tested to determine their activity in blocking the late sodium current. Late INa current is generated by adding 10 μM Tefluthrin (pyrethroid) to the extracellular solution while recording Na currents. For some experiments, 50 nM ATX II (sea anemone toxin), another late INa activator, was used to generate the late component. Both activators generate late components that are large enough that block of the late component by compounds can be measured easily. For the purposes of the screening, late INa is defined as the mean current between 225 ms and 250 ms after stepping to −20 mV to activate Na channels. After establishing the whole cell recording configuration, late INa activators were added to each well 4 times over a 16-17 minute period so that the late component of the Na current reached a stable value. Compounds were then added (typically at 10 μM), in the presence of late INa activator, with 3 additions over the course of 7 or 8 minutes. […]
(In patch-clamp work, channel activity is measured electrically.)
`O=C1CCc2cc(-c3ccc(Cl)c(C(F)(F)F)c3)ccc2N1` [Compound 10, 6-[4-chloro-3-(trifluoromethyl)phenyl]-3,4-dihydroquinolin-2(1H)-one]: the “Late INa % blk (1 μM test cmpd)” value came out at 40%.
The same measure, in the same setting: the same measure for `CCOC(=O)CN1C(=O)CCc2cc(-c3cccc(OC(F)(F)F)c3)ccc21` [Compound 24, ethyl {2-oxo-6-[3-(trifluoromethoxy)phenyl]-3,4-dihydroquinolin-1(2H)-yl}acetate]: 44%; for `CC(C)(C)OC(=O)CN1C(=O)CCc2cc(-c3ccc(F)cc3F)ccc21` [Compound 30, tert-butyl [6-(2,4-difluorophenyl)-2-oxo-3,4-dihydroquinolin-1(2H)-yl]acetate]: 47.9%.
With `CC(C)(C)OC(=O)CN1C(=O)CCc2cc(-c3ccc(F)cc3)ccc21` [Compound 33, tert-butyl [6-(4-fluorophenyl)-2-oxo-3,4-dihydroquinolin-1(2H)-yl]acetate], the “Late INa % blk (1 μM test cmpd)” value came to 38.1%.

Staying with this test, now noted: 10 μM test compound; HEK293 cells expressing hNav1.5; late INa generated with 10 μM Tefluthrin (some experiments 50 nM ATX II).
Turning to `CC(C)(C)OC(=O)CN1C(=O)CCc2cc(-c3ccc(C(F)(F)F)cc3)ccc21` [Compound 45, tert-butyl {2-oxo-6-[4-(trifluoromethyl)phenyl]-3,4-dihydroquinolin-1(2H)-yl}acetate], the “Late INa % blk (10 μM test cmpd)” value was found to be 64%.

Staying with this test, now noted: HEK293, 10 μM test compound; HEK293 cells expressing hNav1.5; late INa generated with 10 μM Tefluthrin (some experiments 50 nM ATX II); read-out: Late INa % blk (10 μM test cmpd).
Turning to `NC(=O)c1ccc(-c2ccc3c(c2)CCC(=O)N3)cc1` [Compound 2, 4-(2-oxo-1,2,3,4-tetrahydroquinolin-6-yl)benzamide], the inhibition at 10 µM was found to be 16%.
The same measure, in the same setting: the same measure for `O=C1CCc2cc(-c3ccc(F)cc3)ccc2N1` [Compound 3, 6-(4-fluorophenyl)-3,4-dihydroquinolin-2(1H)-one]: 29%.
Still for that read-out and setting: the same measure for `N#Cc1ccc(-c2ccc3c(c2)CCC(=O)N3)cc1` [Compound 5, 4-(2-oxo-1,2,3,4-tetrahydroquinolin-6-yl)benzonitrile]: 30%; for `NC(=O)c1cccc(-c2ccc3c(c2)CCC(=O)N3)c1` [Compound 6, 3-(2-oxo-1,2,3,4-tetrahydroquinolin-6-yl)benzamide]: 23%; for `O=C1CCc2cc(-c3ccccc3F)ccc2N1` [Compound 7, 6-(2-fluorophenyl)-3,4-dihydroquinolin-2(1H)-one]: 52%.
On the same count and under the same terms, the same measure for `CC(=O)c1cccc(-c2ccc3c(c2)CCC(=O)N3)c1` [Compound 8, 6-(3-acetylphenyl)-3,4-dihydroquinolin-2(1H)-one]: 22%.
Turning to `O=C1CCc2cc(-c3ccc(C(F)(F)F)cc3)ccc2N1` [Compound 9, 6-[4-(trifluoromethyl)phenyl]-3,4-dihydroquinolin-2(1H)-one], the inhibition at 10 µM is 62%.
The same measure, in the same setting: the same measure for `O=C1CCc2cc(-c3ccc(Cl)c(C(F)(F)F)c3)ccc2N1` [Compound 10, 6-[4-chloro-3-(trifluoromethyl)phenyl]-3,4-dihydroquinolin-2(1H)-one]: 66%.
For `O=C1CCc2cc(-c3ccc(F)cc3F)ccc2N1` [Compound 11, 6-(2,4-difluorophenyl)-3,4-dihydroquinolin-2(1H)-one], the inhibition at 10 µM was determined as 54%.
Same read-out and setting: the same measure for `N#Cc1cc(-c2ccc3c(c2)CCC(=O)N3)ccc1F` [Compound 12, 2-fluoro-5-(2-oxo-1,2,3,4-tetrahydroquinolin-6-yl)benzonitrile]: 27%; for `O=C1CCc2cc(-c3cccc(C(F)(F)F)c3)ccc2N1` [Compound 13, 6-[3-(trifluoromethyl)phenyl]-3,4-dihydroquinolin-2(1H)-one]: 70%.
Still for that read-out and setting: the same measure for `O=C1CCc2cc(-c3ccc(F)cc3F)ccc2N1CCO` [Compound 16, 6-(2,4-difluorophenyl)-1-(2-hydroxyethyl)-3,4-dihydroquinolin-2(1H)-one]: 24%; for `O=C1CCc2cc(-c3ccc(C(F)(F)F)c(F)c3)ccc2N1` [Compound 19, 6-(3-fluoro-4-(trifluoromethyl)phenyl)-3,4-dihydroquinolin-2(1H)-one]: 31%.
Still for that read-out and setting: the same measure for `CCOC(=O)CN1C(=O)CCc2cc(-c3ccc(F)cc3F)ccc21` [Compound 22, ethyl [6-(2,4-difluorophenyl)-2-oxo-3,4-dihydroquinolin-1(2H)-yl]acetate]: 67%; for `CCOC(=O)CN1C(=O)CCc2cc(-c3ccc(F)c(F)c3)ccc21` [Compound 23, ethyl [6-(3,4-difluorophenyl)-2-oxo-3,4-dihydroquinolin-1(2H)-yl]acetate]: 33%.
With `CCOC(=O)CN1C(=O)CCc2cc(-c3cccc(OC(F)(F)F)c3)ccc21` [Compound 24, ethyl {2-oxo-6-[3-(trifluoromethoxy)phenyl]-3,4-dihydroquinolin-1(2H)-yl}acetate], the inhibition at 10 µM amounted to 74%.
Still for that read-out and setting: then `O=C1CCc2cc(-c3ccc(F)cc3F)ccc2N1CC(F)(F)F` [Compound 28, 6-(2,4-difluorophenyl)-1-(2,2,2-trifluoroethyl)-3,4-dihydroquinolin-2(1H)-one], with 18%.
On to `CC(C)(C)OC(=O)CN1C(=O)CCc2cc(-c3ccc(F)cc3F)ccc21` [Compound 30, tert-butyl [6-(2,4-difluorophenyl)-2-oxo-3,4-dihydroquinolin-1(2H)-yl]acetate], for which the inhibition at 10 µM stood at 86%.
Same read-out and setting: the same measure for `NC(=O)CN1C(=O)CCc2cc(-c3ccc(OC(F)(F)F)cc3)ccc21` [Compound 31, 2-{2-oxo-6-[4-(trifluoromethoxy)phenyl]-3,4-dihydroquinolin-1(2H)-yl}acetamide]: 26%; for `O=C(CN1C(=O)CCc2cc(-c3ccc(C(F)(F)F)cc3)ccc21)N1CCOCC1` [Compound 32, 1-[2-(morpholin-4-yl)-2-oxoethyl]-6-[4-(trifluoromethyl)phenyl]-3,4-dihydroquinolin-2(1H)-one]: 27%.
Still for that read-out and setting: the same measure for `CC(C)(C)OC(=O)CN1C(=O)CCc2cc(-c3ccc(F)cc3)ccc21` [Compound 33, tert-butyl [6-(4-fluorophenyl)-2-oxo-3,4-dihydroquinolin-1(2H)-yl]acetate]: 77%; for `CC(C)(C)c1nc(CN2C(=O)CCc3cc(-c4ccc(F)cc4)ccc32)no1` [Compound 35, 1-[(5-tert-butyl-1,2,4-oxadiazol-3-yl)methyl]-6-(4-fluorophenyl)-3,4-dihydroquinolin-2(1H)-one]: 69%; for `O=C1CCc2cc(-c3ccc(OC(F)(F)F)cc3)ccc2N1Cc1cccnc1` [Compound 37, 1-(pyridin-3-ylmethyl)-6-[4-(trifluoromethoxy)phenyl]-3,4-dihydroquinolin-2(1H)-one]: 19%.
Turning to `O=C1CCc2cc(-c3ccc(Oc4ccccc4)cc3)ccc2N1` [Compound 38, 6-(4-phenoxyphenyl)-3,4-dihydroquinolin-2(1H)-one], the inhibition at 10 µM is 53%.
On the same count and under the same terms, the same measure for `CC(C)(C)OC(=O)CN1C(=O)CCc2cc(-c3ccc(Cl)cc3)ccc21` [Compound 40, tert-butyl [6-(4-chlorophenyl)-2-oxo-3,4-dihydroquinolin-1(2H)-yl]acetate]: 64%; for `N#Cc1cccc(-c2ccc3c(c2)CCC(=O)N3)c1` [Compound 41, 3-(2-oxo-1,2,3,4-tetrahydroquinolin-6-yl)benzonitrile]: 12%.
Same read-out and setting: the same measure for `CC1(C)CC(=O)Nc2ccc(-c3ccc(C(F)(F)F)cc3)cc21` [Compound 42, 4,4-dimethyl-6-[4-(trifluoromethyl)phenyl]-3,4-dihydroquinolin-2(1H)-one]: 19%; for `CC(C)(C)OC(=O)CN1C(=O)CCc2cc(-c3ccc(OC(F)(F)F)cc3)ccc21` [Compound 50, tert-butyl {2-oxo-6-[4-(trifluoromethoxy)phenyl]-3,4-dihydroquinolin-1(2H)-yl}acetate]: 76%.
The same measure, in the same setting: then `O=C(O)CN1C(=O)CCc2cc(-c3ccc(OC(F)(F)F)cc3)ccc21` [Compound 51, {2-oxo-6-[4-(trifluoromethoxy)phenyl]-3,4-dihydroquinolin-1(2H)-yl}acetic acid], with 14%.
